From article PMC6572294, “Repurposing of FDA-Approved NSAIDs for DPP-4 Inhibition as an Alternative for Diabetes Mellitus Treatment: Computational and in Vitro Study” (Pharmaceutics, 2019) come the findings set out here.

The target of the experiment is T1, human dipeptidyl peptidase-4 (DPP-4) (Homo sapiens, UniProt P27487).
T1 construct: gene DPP4
In words: fluorogenic Gly-Pro cleavage assay, human DPP-4 inhibitor screening kit (Sigma-Aldrich). Type of experiment: biochemical.

The term IC50 denotes the midpoint of a concentration-inhibition curve.

T1 sequence (P27487 39-766): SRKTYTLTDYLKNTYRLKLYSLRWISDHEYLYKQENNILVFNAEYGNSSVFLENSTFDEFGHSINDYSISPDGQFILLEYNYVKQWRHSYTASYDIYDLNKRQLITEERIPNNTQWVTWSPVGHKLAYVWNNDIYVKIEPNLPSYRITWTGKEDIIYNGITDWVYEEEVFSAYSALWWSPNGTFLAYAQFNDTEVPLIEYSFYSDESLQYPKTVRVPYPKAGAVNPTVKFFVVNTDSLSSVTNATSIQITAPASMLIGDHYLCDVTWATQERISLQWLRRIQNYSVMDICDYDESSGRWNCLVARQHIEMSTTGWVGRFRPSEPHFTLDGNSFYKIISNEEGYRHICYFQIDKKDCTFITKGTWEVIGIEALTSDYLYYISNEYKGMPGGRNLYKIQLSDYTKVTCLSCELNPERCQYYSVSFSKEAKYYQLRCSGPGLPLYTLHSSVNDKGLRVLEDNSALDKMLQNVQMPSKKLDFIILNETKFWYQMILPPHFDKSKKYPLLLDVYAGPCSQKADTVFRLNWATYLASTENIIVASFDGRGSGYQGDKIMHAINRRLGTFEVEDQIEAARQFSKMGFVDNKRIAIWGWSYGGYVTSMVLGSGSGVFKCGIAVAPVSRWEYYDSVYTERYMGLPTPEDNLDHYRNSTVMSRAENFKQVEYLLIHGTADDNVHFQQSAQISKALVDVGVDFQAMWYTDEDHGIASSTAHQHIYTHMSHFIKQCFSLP

For `CN1C(C(=O)Nc2ccccn2)=C(O)c2ccccc2S1(=O)=O` [piroxicam], the IC50 worked out at 9.9 µM.
